Source: paper PMC7824787, “Design, Synthesis and In Vitro Investigation of Novel Basic Celastrol Carboxamides as Bio-Inspired Leishmanicidal Agents Endowed with Inhibitory Activity against Leishmania Hsp90” (Biomolecules, 2021)
Like-named read-outs stand apart in the source and are kept apart here.

What was measured:
[1] = tested on: L. infantum promastigotes; assay: Antileishmanial activity on L. infantum promastigotes (MTT); format: cell-based; conditions: Leishmania infantum, 72 h, 23 °C, MTT, read-out: Leishmania Promastigotes IC50, L. infantum
Procedure: Promastigote stage of L. infantum (MHOM/TN/80/IPT1, kindly provided by Dr. M. Gramiccia and Dr. T. Di Muccio, ISS, Roma) and L. tropica (MHOM/SY/2012/ISS3130) were cultured in RPMI 1640 medium (EuroClone) supplemented with 15% heat-inactivated fetal calf serum (EuroClone, Milan, Italy), 20 mM HEPES, and 2 mM L-glutamine at 23 °C. The MTT (3-[4.5-dimethylthiazol-2-yl]-2.5-diphenyltetrazolium bromide) method was used to estimate the 50% inhibitory concentration (IC50), with some modifications. Compounds were dissolved in DMSO and then diluted with medium to achieve the required concentrations. Test compounds were placed in 96 wells round bottom microplates and seven serial dilutions made. Amphotericin B was used as the reference antileishmanial drug. Parasites were diluted in complete medium to 5 × 10^6 parasites/mL and 100 μL of the suspension was seeded into the plates and incubated at 23 °C for 72 h. Then 20 μL of MTT solution (5 mg/mL) was added into each well, after 3 h the plates were centrifuged, the supernatants discarded and the resulting pellets dissolved in 100 μL of lysing buffer consisting of 20% (w/v) of a solution of SDS (Sigma), 40% of N,N-dimethylformamide (Merck) in H2O. The absorbance of the obtained solutions was measured at a wavelength of 550 nm with a reference at 650 nm with a microplate spectrophotometer (Synergy 4-Biotek, Milan, Italy) and analyzed with the Gen5® software for data processing.
The results are expressed as IC50, the dose of compound that is necessary to inhibit cell growth by 50%; each IC50 value is the mean ± standard deviation of at least three separate experiments performed in duplicate.

[2] = tested on: L. infantum promastigotes; assay: Morphological differentiation of Leishmania promastigotes; format: cell-based, Leishmania infantum; conditions: 50 ng/mL, 23 °C, 48 h (Figure 6)
Procedure: L. infantum promastigotes were diluted in complete medium to 4 × 10^7 parasites/mL and 250 µL of the suspension were seeded into the 24 wells plates and incubated at 23 °C in the presence of geldanamycin, CE or compound 2 at the final concentration of 50 ng/mL. Cultures without drugs incubated at 23 °C or at 37 °C were used as negative and positive control, respectively. After 24 or 48 h of incubation, parasite morphology was evaluated by optical microscopy at 100× (Eclipse Ti Series, Nikon, Minato, Tokyo, Japan) on Giemsa stained smears (a mixture of eosin, methylene blue and Azure-B diluted 1:10). The percent of round promastigotes in treated and non-treated cells was determined. Images were taken at the same magnification by using a digital camera (Nikon Digital Sight). About 500 promastigotes were counted in 4 random fields.
The compounds were incubated (23 °C, physiological pH) with L. infantum promastigotes at a sub-IC50 concentration of 50 ng/mL. […] After 24 h and 48 h the presence of round, amastigote-like cells, was monitored (Figure 6). A negative and positive control experiment (NC and PC, Figure 6a,b) were also conducted growing the promastigotes at 23 °C and 37 °C, respectively.

[3] = molecular target: LbHsp90 (Leishmania braziliensis, UniProt A4HL70); assay: LbHsp90 ATPase kinetics (NADH-coupled enzymatic cascade); format: biochemical
Procedure: The reaction was initiated by the addition of ATP (1 mM) and absorbance changes at 346 nm were monitored for 30 min at 30 °C.
Native LbHsp90 kinetics was measured as described but in the absence of DMSO. Two control experiments were run as follows: • (1) Efficiency of the enzymatic cascade by the used compounds: HEPES buffer (20 mM, pH 7.5) containing KCl (100 mM), MgCl2 (1 mM), ADP (1 mM), NADH (0.18 mM), L-lactate dehydrogenase (4 U mL^−1), phosphoenolpyruvate (1 mM), pyruvate kinase (2.5 U mL^−1); • (2) Interference of the tested compound(s) with the enzymatic cascade: HEPES buffer (20 mM, pH 7.5) containing KCl (100 mM), MgCl2 (1 mM), ADP (1 mM), NADH (0.18 mM), L-lactate dehydrogenase (4 U mL^−1), phosphoenolpyruvate (1 mM), pyruvate kinase (2.5 U mL^−1) and 50 μM compound.
Accordingly, an in vitro assay developed for the evaluation of non-competitive allosteric modulators, which exploits ATPase kinetics data, was used. Briefly, the decrease in absorbance deriving from the continuous oxidation of NADH to NAD^+ produced by a multi-enzymatic cascade triggered by LbHp90-catalyzed ATP hydrolysis is followed spectrophotometrically over the course of 15 min (for details see Appendix B). All the experiments were normalized using the native ATPase activity of LbHsp90 measured in the presence of DMSO, the co-solvent selected for compounds solubilization.
Figure A1 Enzymatic cascade reactions to spectroscopically evaluate L. Hsp90 ATPase kinetics. The ADP produced by ATP hydrolysis during the chaperone cycle reacts with PEP (phosphoenolpyruvate) to form pyruvate in a reaction catalyzed by the enzyme pyruvate kinase (PK), whereby ATP is regenerated. Pyruvate then continues the cascade process and is reduced to lactic acid by action of lactate dehydrogenase (LDH), whereby NADH is oxidized to NAD^+.
LbHsp90 inhibition (%) = (1 − k/knative) * 100 k = ΔAbs/min = extrapolated apparent kinetic constant (Abs/min)

LbHsp90, sequence (A4HL70 entry or part of it): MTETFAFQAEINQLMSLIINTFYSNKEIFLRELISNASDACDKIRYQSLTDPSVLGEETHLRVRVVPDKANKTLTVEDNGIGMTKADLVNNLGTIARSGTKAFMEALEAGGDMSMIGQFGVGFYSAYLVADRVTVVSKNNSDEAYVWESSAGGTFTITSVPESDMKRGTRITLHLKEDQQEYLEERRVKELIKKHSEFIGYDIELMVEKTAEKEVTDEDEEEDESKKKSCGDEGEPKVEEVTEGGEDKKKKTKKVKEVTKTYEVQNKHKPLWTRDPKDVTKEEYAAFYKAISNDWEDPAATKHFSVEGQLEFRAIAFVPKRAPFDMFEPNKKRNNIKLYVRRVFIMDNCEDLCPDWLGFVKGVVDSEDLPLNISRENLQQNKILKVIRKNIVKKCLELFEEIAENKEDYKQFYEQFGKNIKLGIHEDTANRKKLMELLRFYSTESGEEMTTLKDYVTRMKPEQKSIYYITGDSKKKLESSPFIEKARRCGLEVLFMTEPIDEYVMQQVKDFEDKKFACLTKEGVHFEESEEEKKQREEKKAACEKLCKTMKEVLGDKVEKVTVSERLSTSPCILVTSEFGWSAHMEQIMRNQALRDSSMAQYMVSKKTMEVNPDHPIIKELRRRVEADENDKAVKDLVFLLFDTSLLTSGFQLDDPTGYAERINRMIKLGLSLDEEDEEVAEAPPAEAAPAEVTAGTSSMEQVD

`COC1=C2C[C@@H](C)C[C@H](OC)[C@H](O)[C@@H](C)/C=C(\C)[C@H](OC(N)=O)[C@@H](OC)/C=C\C=C(/C)C(=O)NC(=CC1=O)C2=O` [GA, geldanamycin] was tested. Which IC50 [1] did it give?
The IC50 was 140 ± 40 nM.

What about the “round amastigote-like cells (morphological differentiation)” value [2] of the same compound?
The value was ~40%.

What about the inhibition at 10 µM ([3]; GA dose-response, 10 μM) of the same compound?
The inhibition at 10 µM was 0.1 ± 0.02%.

What about the inhibition at 15 µM ([3]; GA dose-response, 15 μM) of the same compound?
The inhibition at 15 µM was 0.2 ± 0.05%.

And the inhibition at 20 µM ([3]; GA dose-response, 20 μM)?
Its inhibition at 20 µM is 0.3 ± 0.08%.

What about the inhibition at 50 µM ([3]; GA dose-response, 50 μM, read-out: LbHsp90 Inhibition (%)) of the same compound?
The inhibition at 50 µM was 0.7 ± 0.04%.

What about the inhibition at 100 µM ([3]; GA dose-response, 100 μM) of the same compound?
The inhibition at 100 µM was 6.5 ± 0.9%.

What about the inhibition at 200 µM ([3]; GA dose-response, 200 μM) of the same compound?
Its inhibition at 200 µM is 30.7 ± 1.2%.

And the inhibition at 400 µM ([3]; GA dose-response, 400 μM)?
The inhibition at 400 µM was 52.3 ± 0.8%.

And the inhibition at 600 µM ([3]; GA dose-response, 600 μM)?
Its inhibition at 600 µM is 76.9 ± 3%.

And the inhibition at 800 µM ([3]; GA dose-response, 800 μM)?
The inhibition at 800 µM was 90.5 ± 2.5%.

What about the inhibition at 1000 µM ([3]; GA dose-response, 1000 μM (1 mM), 1 mM ATP) of the same compound?
The inhibition at 1000 µM was 99 ± 0.9%.

And the inhibition at 1200 µM ([3]; GA dose-response, 1200 μM)?
Its inhibition at 1200 µM is > 99%.

And the inhibition at 50 µM ([3]; read-out: LbHsp90 Inhibition (%), compound 50 μM, 3.5 μM LbHsp90, 1 mM ATP)?
The inhibition at 50 µM was < 0.05%.
